Experimental data from publication PMC11364104, “Discovery of SARS-CoV-2 papain-like protease (PL^pro) inhibitors with efficacy in a murine infection model” (Science Advances, 2024).
Like-named read-outs stand apart in the source and are kept apart here.

How the values were obtained:
Human Cathepsin D = biological target: T1, Human Cathepsin D (Homo sapiens, UniProt P07339); assay: biochemical
T1 construct: assay run at Reaction Biology Corporation

L-Type Ca (Nifedipine) = assay: CEREP ion channel-binding; conditions: 30 µM
hCoV-OC43_PLpro2 = hCoV-OC43_PLpro2 (Human coronavirus OC43, UniProt P0C6X6); assay: biochemical; design: species or system OC43-CoV
Chain of hCoV-OC43_PLpro2 (P0C6X6 1631-1892): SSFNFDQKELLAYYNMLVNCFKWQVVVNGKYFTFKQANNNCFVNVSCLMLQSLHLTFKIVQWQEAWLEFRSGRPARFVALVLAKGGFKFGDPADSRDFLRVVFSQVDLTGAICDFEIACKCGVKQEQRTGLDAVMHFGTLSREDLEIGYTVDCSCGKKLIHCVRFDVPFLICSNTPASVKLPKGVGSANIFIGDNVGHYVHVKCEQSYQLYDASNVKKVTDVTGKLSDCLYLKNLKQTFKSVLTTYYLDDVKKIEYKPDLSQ

PPAR gamma (Binding) = biological target: T2, PPAR gamma (Binding) (Homo sapiens, UniProt P37231); assay: CEREP NHR-binding
T2 construct: purchased Eurofins Cerep
T2 sequence (P37231 whole entry): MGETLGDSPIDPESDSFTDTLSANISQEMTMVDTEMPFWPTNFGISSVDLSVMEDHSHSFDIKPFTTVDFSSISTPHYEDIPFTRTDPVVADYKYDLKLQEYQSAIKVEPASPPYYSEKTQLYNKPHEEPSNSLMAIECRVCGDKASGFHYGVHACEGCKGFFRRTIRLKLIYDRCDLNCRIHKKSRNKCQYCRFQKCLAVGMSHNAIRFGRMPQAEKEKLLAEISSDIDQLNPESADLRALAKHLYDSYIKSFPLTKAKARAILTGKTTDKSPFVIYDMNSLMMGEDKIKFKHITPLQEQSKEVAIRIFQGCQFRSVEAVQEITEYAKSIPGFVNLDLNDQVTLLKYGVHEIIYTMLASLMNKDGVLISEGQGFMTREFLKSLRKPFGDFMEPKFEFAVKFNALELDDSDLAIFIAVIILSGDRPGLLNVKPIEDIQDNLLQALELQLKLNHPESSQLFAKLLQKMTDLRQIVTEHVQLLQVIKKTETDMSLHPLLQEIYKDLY

[1] = Media binding for in vitro cell systems; type: in vitro ADME
CYP1A2 = CYP1A2 (Homo sapiens, UniProt P05177); assay: biochemical
Chain of CYP1A2 (P05177 whole entry): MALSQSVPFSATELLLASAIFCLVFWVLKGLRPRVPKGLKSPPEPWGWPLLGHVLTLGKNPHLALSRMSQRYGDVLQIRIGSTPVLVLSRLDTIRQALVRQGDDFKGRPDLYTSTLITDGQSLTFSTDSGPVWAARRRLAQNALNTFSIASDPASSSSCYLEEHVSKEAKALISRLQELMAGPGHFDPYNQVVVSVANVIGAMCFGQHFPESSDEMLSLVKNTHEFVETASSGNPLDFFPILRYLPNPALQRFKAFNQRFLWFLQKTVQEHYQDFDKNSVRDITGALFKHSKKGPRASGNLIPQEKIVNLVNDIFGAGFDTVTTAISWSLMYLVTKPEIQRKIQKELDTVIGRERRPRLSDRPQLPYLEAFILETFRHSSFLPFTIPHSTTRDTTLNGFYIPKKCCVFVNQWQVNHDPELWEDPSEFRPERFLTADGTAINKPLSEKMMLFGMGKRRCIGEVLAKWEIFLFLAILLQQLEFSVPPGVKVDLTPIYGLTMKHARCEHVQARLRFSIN

Dog pharmacokinetics = type: in vivo, Beagle dog; conditions: for Vd: read-out: Vdss
Experimental: from Vital River (Beijing, China) and were typically 7-9 weeks of age at the time of dosing.
During the pharmacokinetic studies all animals were housed individually. Access to food and water was provided ad libitum (i.e., subjects were dosed in the fed state). In the instances where oral (po) dose was administered in the fed state, with ad libitum access to food and water. Compounds were administered intravenously (iv) via the tail vein (n = 2) dosed as a solution (1 mg/kg, 3 ml/kg) or via oral gavage as a solution (10 mg/kg, 10 ml/kg). Dosing solutions were prepared immediately before dosing. The composition of each dosing vehicle […]
Serial blood samples were collected via the jugular vein cannula at predetermined timepoints after dosing. Animals were monitored for pain or distress throughout the study, with at least daily monitoring during normal husbandry prior to study start. At the completion of the study, animals were euthanized by overdose of inhaled carbon dioxide. Blood samples were collected into tubes containing K2EDTA and stored on ice until centrifugation to obtain plasma, which was stored frozen at - 20 °C or lower.
Dog pharmacokinetic studies were done at Pfizer (Groton, CT). All procedures performed on beagle dogs were in accordance with regulations and established guidelines and were reviewed and approved by an Institutional Animal Care and Use Committee through an ethical review process. Male Beagle dogs were purchased from Marshall Bioresources (North Rose, NY); subjects 3 years of age were used in pharmacokinetics studies. For each study (n=2), compounds were dosed iv by cephalic vein as a solution (0.5 mg/kg, 1 mL/kg) or via oral gavage as a suspension (3 mg/kg, 5 mL/kg). In the instances where oral (po) dose was administered in the fed state, dogs were fed a couple hours before dosing. In the instances where the IV dose was administered in the fasted state, dogs were fasted over night and fed 4 hours post dose. Subjects were monitored for pain or distress throughout the study followed by at least daily monitoring while off study. The iv dosing vehicle was optimized such that the compounds were in solution and stable for at least 24 h. Serial blood samples were collected via the jugular vein at predefined time points post-dose. Blood samples were collected into K3EDTA treated collection tubes and were stored on wet ice prior to being centrifuged to obtain plasma, which was stored frozen at - 20 °C or lower.
Monkey pharmacokinetic studies were conducted at Pfizer (Groton, CT). All procedures performed on Cynomolgus monkeys were in accordance with regulations and established guidelines and were reviewed and approved by an Institutional Animal Care and Use Committee through an ethical review process. Male Cynomolgus monkeys were purchased from Envigo Global Services (Indianapolis, IN); subjects 5-8 years of age were used in pharmacokinetic studies. For each study (n=2), compounds were dosed iv by the cephalic vein (typically 1 mg/kg, 2 ml/kg). Subjects were monitored for pain or distress throughout the study followed by at least daily monitoring while off study. The iv dosing vehicle was optimized such that the compounds were in solution and stable for at least 24 h.
Serial blood samples were collected via the femoral vein at predefined time points post-dose. Blood samples were collected into K3EDTA treated collection tubes and were stored on wet ice prior to being centrifuged to obtain plasma, which was stored frozen at -20 °C or […]
LC-MS/MS Analysis of Plasma Samples
Plasma samples were processed using protein precipitation with 50:50 acetonitrile: methanol containing terfenadine (5 ng/ml) as an internal standard followed by quantitation against a standard curve (0.1-1000 ng/ml) prepared in blank plasma. Quantitation of analyte in plasma samples was done using LC-MS/MS. Standard and quality control samples, prepared in blank plasma were extracted in the same manner as the in-life samples. Briefly, a Waters […]

Sodium (Site 2) = assay: CEREP ion channel-binding; conditions: 30 µM
Human Caspase 2 = biological target: T3, Human Caspase 2 (Homo sapiens, UniProt P42575); assay: biochemical
T3 construct: assay run at Reaction Biology Corporation

Adenosine A2a = biological target: T4, Adenosine A2a (Homo sapiens, UniProt P29274); assay: CEREP functional agonism; type: cell-based; conditions: 30 µM
T4 construct: purchased Eurofins Cerep
T4 sequence (P29274 whole entry): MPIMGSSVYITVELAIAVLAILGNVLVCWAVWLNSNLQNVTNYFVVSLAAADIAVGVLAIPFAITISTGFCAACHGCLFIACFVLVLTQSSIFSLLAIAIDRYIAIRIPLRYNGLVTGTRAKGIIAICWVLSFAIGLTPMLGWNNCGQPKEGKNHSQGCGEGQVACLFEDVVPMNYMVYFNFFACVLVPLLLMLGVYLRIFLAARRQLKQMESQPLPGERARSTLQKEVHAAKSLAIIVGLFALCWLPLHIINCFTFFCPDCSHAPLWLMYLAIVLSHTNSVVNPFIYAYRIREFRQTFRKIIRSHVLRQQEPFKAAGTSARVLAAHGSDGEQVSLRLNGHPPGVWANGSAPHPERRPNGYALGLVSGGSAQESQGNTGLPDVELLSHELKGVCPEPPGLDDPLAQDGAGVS

Human Cathepsin B = biological target: T5, Human Cathepsin B (Homo sapiens, UniProt P07858); assay: biochemical
T5 construct: assay run at Reaction Biology Corporation

Human Chymotrypsin = type: biochemical
MERS_Plpro = MERS_Plpro (Middle East respiratory syndrome-related coronavirus, UniProt K9N7C7); assay: biochemical; design: species or system MERS-CoV
Chain of MERS_Plpro (K9N7C7 1552-1823 limits assumed): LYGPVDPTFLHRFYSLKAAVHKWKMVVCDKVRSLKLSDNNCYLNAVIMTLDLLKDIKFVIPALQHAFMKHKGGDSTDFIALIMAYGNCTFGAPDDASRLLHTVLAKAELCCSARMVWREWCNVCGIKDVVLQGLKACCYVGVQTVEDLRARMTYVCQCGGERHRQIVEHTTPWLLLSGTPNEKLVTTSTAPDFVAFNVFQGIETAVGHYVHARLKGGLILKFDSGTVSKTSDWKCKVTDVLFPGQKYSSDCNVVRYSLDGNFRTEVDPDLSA

NMDA Receptor = assay: CEREP ion channel-binding; conditions: 30 µM
[2] = biological target: T6, Androgen Receptor (Binding) (Homo sapiens, UniProt P10275); assay: CEREP NHR-binding
T6 construct: purchased Eurofins Cerep
T6 sequence (P10275 whole entry): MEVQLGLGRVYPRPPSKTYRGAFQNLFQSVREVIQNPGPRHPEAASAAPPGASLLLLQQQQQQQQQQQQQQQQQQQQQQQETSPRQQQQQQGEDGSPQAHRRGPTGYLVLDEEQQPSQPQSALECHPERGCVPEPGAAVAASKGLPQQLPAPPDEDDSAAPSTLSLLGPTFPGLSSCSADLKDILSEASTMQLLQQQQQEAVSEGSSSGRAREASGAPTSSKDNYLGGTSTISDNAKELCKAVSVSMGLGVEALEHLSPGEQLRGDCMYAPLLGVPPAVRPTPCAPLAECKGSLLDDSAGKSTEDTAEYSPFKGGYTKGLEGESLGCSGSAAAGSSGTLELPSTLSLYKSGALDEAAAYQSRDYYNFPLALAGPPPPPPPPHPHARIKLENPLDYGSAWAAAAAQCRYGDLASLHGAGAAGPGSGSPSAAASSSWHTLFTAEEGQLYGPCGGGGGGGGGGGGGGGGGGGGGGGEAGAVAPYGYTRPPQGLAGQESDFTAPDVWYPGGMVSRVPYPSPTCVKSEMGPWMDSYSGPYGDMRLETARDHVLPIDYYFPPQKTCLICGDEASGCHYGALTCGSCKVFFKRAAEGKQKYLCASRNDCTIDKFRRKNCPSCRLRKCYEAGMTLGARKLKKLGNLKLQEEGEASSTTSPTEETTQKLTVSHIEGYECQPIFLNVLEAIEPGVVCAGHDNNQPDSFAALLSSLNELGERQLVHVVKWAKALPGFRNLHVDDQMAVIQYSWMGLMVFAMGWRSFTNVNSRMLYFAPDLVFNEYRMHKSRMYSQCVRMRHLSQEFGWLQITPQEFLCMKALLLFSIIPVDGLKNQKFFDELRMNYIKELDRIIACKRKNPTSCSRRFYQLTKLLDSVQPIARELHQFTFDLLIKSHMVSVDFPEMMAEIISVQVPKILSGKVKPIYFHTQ

CYP2D6 = CYP2D6 (Homo sapiens, UniProt P10635); assay: biochemical
Chain of CYP2D6 (P10635 whole entry): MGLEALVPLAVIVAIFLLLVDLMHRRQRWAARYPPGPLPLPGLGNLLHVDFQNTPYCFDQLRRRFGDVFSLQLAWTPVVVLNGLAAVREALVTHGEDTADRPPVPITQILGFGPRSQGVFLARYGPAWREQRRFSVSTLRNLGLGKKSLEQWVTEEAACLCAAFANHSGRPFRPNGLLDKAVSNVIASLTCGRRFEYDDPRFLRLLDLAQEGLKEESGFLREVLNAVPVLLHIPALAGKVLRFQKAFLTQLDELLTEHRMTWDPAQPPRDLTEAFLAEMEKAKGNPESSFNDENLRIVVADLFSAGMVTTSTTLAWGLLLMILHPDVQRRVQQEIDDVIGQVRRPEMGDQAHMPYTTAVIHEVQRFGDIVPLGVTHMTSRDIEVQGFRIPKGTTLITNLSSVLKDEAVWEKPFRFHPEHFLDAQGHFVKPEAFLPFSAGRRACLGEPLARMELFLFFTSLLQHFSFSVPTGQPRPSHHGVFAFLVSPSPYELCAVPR

Human Cathepsin V = biological target: T7, Human Cathepsin V (Homo sapiens, UniProt O60911); assay: biochemical
T7 construct: assay run at Reaction Biology Corporation
T7 sequence (O60911 114-334): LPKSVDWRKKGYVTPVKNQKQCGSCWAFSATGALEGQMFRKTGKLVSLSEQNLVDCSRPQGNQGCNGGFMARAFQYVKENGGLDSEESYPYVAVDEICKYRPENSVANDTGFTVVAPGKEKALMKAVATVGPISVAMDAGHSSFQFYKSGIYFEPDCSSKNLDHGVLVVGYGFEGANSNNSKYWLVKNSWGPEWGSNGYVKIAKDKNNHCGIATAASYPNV

in vitro = conditions: male, cynomolgus monkey, plasma
Acetylcholinesterase = biological target: T8, Acetylcholinesterase (Homo sapiens, UniProt P22303); assay: CEREP enzyme inhibition; type: biochemical
T8 construct: purchased Eurofins Cerep
T8 sequence (P22303 32-614): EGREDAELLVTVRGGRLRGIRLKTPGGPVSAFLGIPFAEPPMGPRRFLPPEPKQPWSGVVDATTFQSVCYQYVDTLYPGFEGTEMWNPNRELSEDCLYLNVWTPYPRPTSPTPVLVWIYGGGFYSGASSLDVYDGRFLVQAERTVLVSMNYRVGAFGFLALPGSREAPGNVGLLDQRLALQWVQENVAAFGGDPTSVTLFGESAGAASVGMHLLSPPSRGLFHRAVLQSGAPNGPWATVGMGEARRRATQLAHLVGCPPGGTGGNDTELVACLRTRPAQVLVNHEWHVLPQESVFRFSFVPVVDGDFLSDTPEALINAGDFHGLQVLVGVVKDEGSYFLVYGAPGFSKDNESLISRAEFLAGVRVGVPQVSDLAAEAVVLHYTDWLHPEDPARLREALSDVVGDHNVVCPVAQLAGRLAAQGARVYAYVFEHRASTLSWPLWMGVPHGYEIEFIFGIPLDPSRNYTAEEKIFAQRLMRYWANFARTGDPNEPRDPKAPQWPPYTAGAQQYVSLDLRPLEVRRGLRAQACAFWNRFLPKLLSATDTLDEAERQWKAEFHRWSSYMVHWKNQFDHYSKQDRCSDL

hCoV-229E_PLpro2 = hCoV-229E_PLpro2 (Human coronavirus 229E, UniProt P0C6X1); assay: biochemical; design: species or system 229E-CoV
Chain of hCoV-229E_PLpro2 (P0C6X1 1663-1914): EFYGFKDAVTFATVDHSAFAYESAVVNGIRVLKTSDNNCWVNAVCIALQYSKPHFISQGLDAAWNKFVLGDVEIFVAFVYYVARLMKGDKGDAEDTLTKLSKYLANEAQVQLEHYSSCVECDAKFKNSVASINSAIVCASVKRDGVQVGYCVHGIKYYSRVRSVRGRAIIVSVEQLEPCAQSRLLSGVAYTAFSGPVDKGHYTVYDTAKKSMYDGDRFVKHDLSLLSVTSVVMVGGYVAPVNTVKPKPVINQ

[3] = plasma, Male Beagle Dog, 0.5 mg/kg iv, solution, mean n=2
[4] = plasma, Male Beagle Dog, 3.0 mg/kg po, suspension, mean n=2

T1 sequence (P07339 65-412): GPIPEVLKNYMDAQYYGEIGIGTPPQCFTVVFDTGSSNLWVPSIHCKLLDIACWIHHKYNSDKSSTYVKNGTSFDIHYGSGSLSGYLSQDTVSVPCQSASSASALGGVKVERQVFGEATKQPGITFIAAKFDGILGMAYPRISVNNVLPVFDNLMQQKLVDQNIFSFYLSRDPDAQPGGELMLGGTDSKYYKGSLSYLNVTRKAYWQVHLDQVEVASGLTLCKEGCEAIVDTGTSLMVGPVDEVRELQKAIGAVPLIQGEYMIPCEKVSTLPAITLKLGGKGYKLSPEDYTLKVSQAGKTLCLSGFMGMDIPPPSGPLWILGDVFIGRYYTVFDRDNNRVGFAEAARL

## Cc1ccc(N2CCN(C)CC2)cc1C(=O)NC1(c2cc(-c3cnn(C)c3)nc3ccccc23)CC1 [Compound 4]
Human Cathepsin D
  IC50: > 100 µM
L-Type Ca (Nifedipine)
  % inhibition: -6%
hCoV-OC43_PLpro2
  Ki: > 10 µM
  activity on OC43 PL^pro: nearly inactive
PPAR gamma (Binding)
  inhibition at 30 µM: 9%
[1]; bovine, cell culture medium (2% HI-FBS in DMEM), media: 2% HI-FBS in DMEM, n = 4, read-out: Fu (CV)
  fraction unbound: 0.749
[1]; dNHBE medium, read-out: fraction unbound in the dNHBE medium
  fraction unbound: 0.916
CYP1A2
  IC50: 72.2 µM
Dog pharmacokinetics; Male Beagle Dog, 3.0 mg/kg po, suspension, mean n=2
  Oral F: 41.0%
Dog pharmacokinetics; male, Beagle, plasma, 0.5 mg/kg, dog (d), intravenous
  Vd: 1.59 L/kg
Dog pharmacokinetics; male, Beagle, plasma, po, 3 mg/kg, dog (d), read-out: Oral F (%)
  bioavailability: 41%
Dog pharmacokinetics; [3]
  AUC(0-inf): 640 ng·h/mL
  half-life: 2.06 h
  Vd: 1.59 L/kg
Dog pharmacokinetics; plasma, Male Beagle Dog, 0.5 mg/kg iv, solution, mean n=2, read-out: CLp
  clearance: 13.4 mL/min/kg
Dog pharmacokinetics; [4]
  AUC(0-inf): 1580 ng·h/mL
  Cmax: 354 ng/mL
  Tmax: 1 h
  half-life: 2.52 h
Sodium (Site 2)
  % inhibition: -15%
Human Caspase 2
  IC50: > 100 µM
Adenosine A2a
  % response: 0%
Human Cathepsin B
  IC50: > 100 µM
Human Chymotrypsin
  IC50: > 100 µM
MERS_Plpro
  Ki: > 10 µM
  activity on MERS PL^pro: nearly inactive
NMDA Receptor
  % inhibition: -2%
[2]
  inhibition at 30 µM: -10%
CYP2D6
  IC50: > 30 µM
Human Cathepsin V
  IC50: > 100 µM
In vitro
  fraction unbound: 0.101
Acetylcholinesterase
  inhibition at 30 µM: 17%
hCoV-229E_PLpro2
  Ki: > 10 µM
  activity on 229E PL^pro: nearly inactive
